Results from US20100273748A1, “ANTIMICROBIAL THERAPY” (priority 2006, published 2010).

Experiments:
[1] = system: S. aureus; assay: Electron microscopy of bacterial cell wall lysis; format: cell-based
[2] = system: Staphylococcus aureus; assay: Bacterial growth inhibition (turbidity OD600) with or without carbonate; format: cell-based; conditions: for inhibition of S. aureus growth: 32 μM LL-37
[3] = system: cathelicidin; assay: qPCR of cathelicidin mRNA in cultured keratinocytes; format: cell-based, human; conditions: normal human keratinocytes and HaCat cell line
Protocol: Cell culture and stimuli. Human keratinocytes were grown in serum-free EpiLife® cell culture media (Cascade Biologics; Portland, Oreg.) containing 0.06 mM Ca2+ and 1× EpiLife® defined growth supplement (EDGS) at 37° C. under standard tissue culture conditions. Stock cultures were maintained for up to five passages in this media with the addition of 50 U/mL penicillin and 50 μg/mL streptomycin. HaCaT keratinocytes were cultured in DMEM (Sigma, St. Louis, Mo.) with 10% FCS. Cells at 50-70% confluence were stimulated in fresh medium after preincubation with 1,25(OH)2 vitamin D3 (1,25D3; 0.1-100 nM, 4-24 h; Sigma). Alternatively, NHEK were stimulated in the presence of 1,25D3 (0.1-100 nM). Stimuli included TLR2,6 ligands Malp-2 (0.001-0.5 μg/ml; Alexis Biochemicals, Carlsbad, Calif.), FSL-1 (1-2 μg/ml, Invivogen, San Diego, Calif.) and zymosan (50 μg/ml; Invivogen), as well as flagellin (50 ng/ml; Alexis), LPS (1 μg/ml; Sigma), lipoteichoic acid (LTA; 10 μg/ml; Sigma), 19 kDA lipopeptide (10 μg/ml, a kind gift from S. Krutzik, Division of Dermatology, UCLA), CpG DNA (10 μg/ml; Sigma), Ca2+ (1.7 mM), LPS (1 μg/ml; Sigma), TNFα (20 ng/ml; Chemicon Temecula, Calif.) and TGFβ1 (0.1-1 μg/ml; R&D Systems, Minneapolis, Minn.). A TLR2 blocking antibody (αTLR2; clone TL2.1, 5 μg/ml, eBioscience, San Diego, Calif.) was utilized to investigate the role of TLR2 signaling. Furthermore, keratinocytes were pretreated with a vitamin D receptor antagonist (VDR-antagonist ZK159222 Schering AG; 10^-7M) or the CYP inhibitor itraconazole (ITRA; 10^-7M) before stimulation with TGFβ in the presence of 25OH vitamin D3 (25D3, 10 nM, Sigma).
Real-time RT-PCR (qPCR). RNA was extracted from cells, epidermal constructs or tissue using Trizol® and 1 μg RNA was reverse transcribed using iScript® (BioRad, Hercules, Calif.). Expression of cathelicidin and GAPDH was analysed by real-time RT-PCR. Predeveloped Taqman® assay probes (ABI, Foster City, Calif.) were used for the analyses of the expression of CYP24A1 (24-hydroxylase), CYP27B1 (1α-hydroxylase), CD14, CD36, TLR1, TLR2, TLR4, TLR6 and murine CD14. All analyses were performed in triplicate from 2-5 independent experiments in an ABI Prism® 7000 Sequence Detection System. Fold induction relative to the vehicle treated control in in vitro experiments was calculated using the comparative Ct method, where ΔΔCt is ΔCt(stimulant)-ΔCt(vehicle), ΔCt is Ct(gene)-Ct(GAPDH) and Ct is the cycle at which an arbitrary detection threshold is crossed. For quantification of transcript abundance in tissue samples target gene expression was normalized to GAPDH and compared to non-treated or non-injured skin.

[4] = system: S. aureus DmprF; assay: Antimicrobial activity of keratinocyte lysates (bacterial growth, OD600); format: cell-based, Staphylococcus aureus; conditions: versus unstimulated keratinocytes
Protocol: Panel a: NHEKs were stimulated with 1,25D3 (10^−9-10^−7 M) in the presence of the HDAC inhibitor butyrate (BUT; 2 mM) for 24 hours. mRNA abundance was determined by real-time qPCR for cathelicidin and glyceraldehyde-3-phosphate dehydrogenase and normalized to vehicle-treated controls. […] Data shown are means (7SD) of the results from a single stimulation experiment performed in triplicates and are representative of at least three independent experiments (**P<0.01; ***P<0.001; two-way analysis of variance). Panel b: The HDAC inhibitor TSA (200 ng ml^−1) induces cathelicidin in the presence of 1,25D3 (10^−8M). Expression of cathelicidin is dependent on a functional VDR, as pretreatment with the VDR antagonist ZK159222 (10^−7 M) inhibits induction of cathelicidin with BUT (2 mM) in the presence of 1,25D3 (10^−8 M) after 24 hours. Expression of cathelicidin was determined by qPCR as described in Panel a. (*P<0.05; Student's t-test). Panel c: Increased transcript correlates with enhanced cathelicidin protein expression after HDAC inhibitor and 1,25D3 stimulation. NHEKs grown on chamber slides were stimulated with the vehicle, 1,25D3 (10^−8M), BUT (2 mM), or the combination for 24 hours. Cells were stained with a polyclonal anti-LL-37 antibody (followed by an FITC-coupled secondary antibody) and nuclei detected with 4,6-diamidino-2-phenylindole (Bar=30 μM). […] NHEKs were stimulated with 1,25D3 (10^−8M) in combination with the HDAC inhibitor BUT (2 mM) for 24 hours, cells harvested and cell lysates co-incubated with S. aureus DmprF, and bacterial growth monitored over time to determine antimicrobial activity. Media not containing cell lysates or containing cell lysates from unstimulated cells were used as controls.

[5] = system: keratinocytes; assay: Keratinocyte morphology, LDH release and Annexin V/propidium iodide staining; format: cell-based, human; conditions: 24 hours after butyrate alone or in combination with 1,25D3
[6] = target: T1, FPRL-1 (Homo sapiens, UniProt P25090); assay: FPRL-1 binding
T1 sequence (P25090 1-351): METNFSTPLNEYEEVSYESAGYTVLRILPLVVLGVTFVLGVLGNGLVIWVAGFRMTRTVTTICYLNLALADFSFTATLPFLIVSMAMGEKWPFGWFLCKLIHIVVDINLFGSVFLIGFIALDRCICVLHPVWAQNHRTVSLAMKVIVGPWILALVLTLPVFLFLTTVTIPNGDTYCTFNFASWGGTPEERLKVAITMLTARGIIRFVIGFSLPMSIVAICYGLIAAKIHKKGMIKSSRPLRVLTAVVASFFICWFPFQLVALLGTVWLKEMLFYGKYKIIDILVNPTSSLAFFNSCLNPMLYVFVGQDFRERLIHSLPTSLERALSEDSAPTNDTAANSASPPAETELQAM

[7] = system: Staphylococcus aureus mprF; assay: Radial diffusion assay; format: cell-based
Protocol: Sweat collection and processing. Sweat was collected on paper tissues (Kimwipes, Kimberly-Clark, Ga.) from healthy volunteers after exercise. After collection, 20 ml of sweat was centrifuged at 2000 g for 15 min. at 4° C., filtered through a […] (Acrodisc syringe filter, 0.2 mm, low protein binding, Fisher scientific, Tustin, Calif.), and frozen at −80° C. For some experiments sweat was lyophilized to dryness, then suspended in 400 μl of distilled water (DW: cell culture grade, endotoxin free, GibcoBRL, Grand island, NY). For analysis of LL37 processing by sweat, 1.6 nmol of LL-37 synthetic peptide was incubated in 50 ml of sweat for 0, 1, 6, 24 hrs at 37° C. or 4° C. In some experiments proteinase inhibitors including; mixed protease inhibitor cocktail (1tab/10 ml, Roche, Indianapolis, Ind.), […] Bestatin, 10 mg/ml E-64, 10 mg/ml Aprotinin, (Sigma, St Louis, Mo.); 100 mM AEBSF, 100 mM Neutrophil elastase inhibitor (NEI) or 100 mM leukocyte elastase inhibitor (LEI) (Calbiochem, San Diego, Calif.) were added during incubation. After incubation, 2 ml was assayed by radial diffusion assay to determine antibacterial activity. For analysis by HPLC 32 nmoles LL-37 was incubated in 100u1. To control for potential contamination from paper tissues, parallel processing was done on tissues soaked in phosphate-buffered saline (PBS:137 mM NaCl, 2.7 mM KCL, 4.3 mM Na2HPO4-H2O, 1.4 mM KH2PO4, pH 7.4). No antimicrobial activity was detectable in these preparations. Protein concentrations were evaluated by BCA assay (protein assay reagent, Pierce, Rockford, Ill.) or Bradford protein assay (Bio-Rad, Hercules, Calif.) according to manufacture's instructions. Human tissue and blood collection was approved by the UCSD Human Research Protection Program.
Antimicrobial assays. For screening of antimicrobial activity of HPLC fractions, radial diffusion assay was used. Lyophilized HPLC fractions were dissolved in DW (GibcoBRL, Grand Island, N.Y.), and tested against Staphylococcus aureus mprF. Thin plates (1 mm) of 1% agarose in 0.5% tryptone containing approximately 1×10^6 cells/ml of S. aureus mprF were used. 1 mm wells were punched in the plates and […] of samples dissolved in tissue culture grade sterile water were loaded in each well.

[8] = system: S. aureus; assay: Release of cytoplasmic-expressed beta-galactosidase (membrane disruption); format: cell-based; conditions: with versus without NaHCO3
Protocol: Release of cytoplasmic-expressed beta-galactosidase was measured from bacteria with and without the addition of NaHCO3.

[9] = system: wild-type S. aureus (clinical isolate); assay: Radial diffusion assay; format: cell-based
[10] = system: dendritic cells; assay: Pro-inflammatory chemokine release from dendritic cells; format: cell-based
[11] = system: IL-8; assay: IL-8 release from normal human keratinocytes (ELISA); format: cell-based
Protocol: Measurement of IL-8 release from keratinocytes Normal human keratinocytes (NHK) were cultured in EpiLife cell medium (Cascade Biologics, Portland, Oreg.) containing 0.06 mM Ca2+, 1× EpiLife-defined growth supplement (EDGS), 50 U/ml penicillin and […] streptomycin (Invitrogen, Carlsbad, Calif.). Keratinocytes were seeded in a 96-well plate and grown to confluence under standard tissue culture conditions. Cells were incubated with […] LL-37 or LL37-derived peptides (e.g., cathelicidin functional fragments) for 8 hours at 37° C. Supernatants were collected and stored at −20° C. overnight. IL-8 ELISA Assay was performed according to the manufacturer's instructions (BD OptEIA, Pharmingen, San Diego, Calif.). Supernatants were diluted 1:10 for assay. Simultaneously, LDH assays (Roche, Indianapolis, Ind.) were used to assess the cytotoxicity of peptides to keratinocytes. LDH release following peptide exposure was compared to release induced by 1% Triton X100.

[12] = system: neutrophil and mast cell; assay: Neutrophil and mast cell chemotaxis; format: cell-based
[13] = system: CYP27B1; assay: qPCR of CYP27B1 mRNA in cultured keratinocytes; format: cell-based, human; conditions: 24 hours, TGF 1 μg/ml, TNFα 20 ng/ml, TLR2 ligand Malp-2
Protocol: Cell culture and stimuli. Human keratinocytes were grown in serum-free EpiLife® cell culture media (Cascade Biologics; Portland, Oreg.) containing 0.06 mM Ca2+ and 1× EpiLife® defined growth supplement (EDGS) at 37° C. under standard tissue culture conditions. Stock cultures were maintained for up to five passages in this media with the addition of 50 U/mL penicillin and 50 μg/mL streptomycin. HaCaT keratinocytes were cultured in DMEM (Sigma, St. Louis, Mo.) with 10% FCS. Cells at 50-70% confluence were stimulated in fresh medium after preincubation with 1,25(OH)2 vitamin D3 (1,25D3; 0.1-100 nM, 4-24 h; Sigma). Alternatively, NHEK were stimulated in the presence of 1,25D3 (0.1-100 nM). […]
Real-time RT-PCR (qPCR). […] Expression of cathelicidin and GAPDH was analysed by real-time RT-PCR. […] Fold induction relative to the vehicle treated control in in vitro experiments was calculated using the comparative Ct method, where ΔΔCt is ΔCt(stimulant)-ΔCt(vehicle), ΔCt is Ct(gene)-Ct(GAPDH) and Ct is the cycle at which an arbitrary detection threshold is crossed. For quantification of transcript abundance in tissue samples target gene expression was normalized to GAPDH and compared to non-treated or non-injured skin.

`O=C(O)O` [NaHCO3] was tested, and the “bacterial cell wall damage (EM)” value ([1]; 25 mm NaHCO3 alone) was “no visible effect”, the “effect of NaHCO3 alone on bacterial growth” value ([2]; 25 mM NaHCO3, no peptide) was “without effecting bacterial growth” and the “effect of NaHCO3 alone on bacterial growth” value ([2]; high concentrations of NaHCO3) was “retarded the growth of S. aureus”. For the same compound, the “increase of LL-37 antimicrobial activity by carbonate containing compound” value ([2]; medium with 32 μM LL-37, pH 7.4, KHCO3 and Na2CO3 at 50 mM) was “responsible for this increase”.
With `C=C1CC[C@H](O)C/C1=C/C=C1\CCC[C@]2(C)[C@@H]([C@H](C)CCCC(C)C)CC[C@@H]12` [Vitamin D3] the expression of cathelicidin [3] was “induced the expression of cathelicidin” and the “antimicrobial activity of stimulated keratinocytes against Staphalococcus aureus” value [4] was “enhanced antimicrobial activity”.
In the case of `CCCC(=O)O` [butyrate], the “cell morphology, cell death or apoptosis” value [5] is reported as “no change was seen in cell morphology, cell death or apoptosis”.
In the case of “LLGDFFRKSKEKIGKEFKRIVQRIKDFLRNLVPRTES [LL-37]”, the “binding to FPRL-1” value [6] is reported as “bind FPRL-1”, the “bacterial cell wall damage (EM)” value ([1]; 32 μM LL-37, absence of NaHCO3, four hours) is reported as “caused a small amount of damage to bacterial cell walls” and the “bacterial cell wall damage (EM)” value ([1]; 32 μM LL-37 with 25 mM NaHCO3, four hours) is reported as “totally ablated them”. The “zone of inhibition after incubation of LL-37 in PBS or distilled water” value ([7]; identical conditions in PBS or distilled water) was “did not affect activity”, the “zone of inhibition after incubation of LL-37 in sweat” value ([7]; incubation at 37° C. in sweat) was “increased the zone of inhibition and apparent antimicrobial activity” and the “zone of inhibition after incubation of LL-37 in sweat” value ([7]; incubation in sweat at 4° C.) was “did not occur at 4 °C”. The “inhibition of S. aureus growth” value ([2]; TSB media alone, or with NaCl and FBS) was “inhibited Staphalococcus aureus growth poorly”, the “inhibition of S. aureus growth” value ([2]; in the presence of MEM buffers) was “inhibition was greatly increased” and the “growth of S. aureus” value ([2]; 32 μM LL-37 with 25 mM NaHCO3, pH 7.4) was “complete inhibition of bacterial growth”. For the same compound, the “antimicrobial activity of LL-37, bicarbonate versus pH” value ([2]; 50 mM NaHCO3 or 50 mM glycine buffer at various pH) was “Only bicarbonate containing media was able to confer increased antimicrobial activity”, the “change of minimal inhibitory concentration (MIC) by NaHCO3” value ([2]; 20% TSB, 1 mM NaH2PO4, with or without 50 mM NaHCO3, pH 7.4) was “greatly reduced” and the “leakage of cytoplasmic protein (beta-galactosidase)” value [8] was “induces greater leakage of cytoplasmic protein with carbonate”. For the same compound, the “Radial Diffusion Assay, minimal inhibitory concentration (MIC), S. aureus (wt)” value [9] was 4 μm, the “pro-inflammatory chemokine release from dendritic cells” value [10] was “blocks pro-inflammatory chemokine release” and the “pro-inflammatory release from keratinocytes” value [11] was “induces pro-inflammatory release”. The “neutrophil and mast cell chemotaxis” value [12] was “induces neutrophil and mast cell chemotaxis”.
For Polymyxin B, the “leakage of cytoplasmic protein (beta-galactosidase)” value [8] was “induces greater leakage of cytoplasmic protein with carbonate”.
TNFα was tested, and the CYP27B1 expression [13] was “had no effect”.
